Test results: patent US8822533B1, “Methods and compositions for repelling and/or killing insects” (The United States of America, as represented by the …, priority 2011, dated 2014)

Test system: Ae. aegypti + An. albimanus
Experiment: Bite protection of FRACUs (Defender-M) treated with insecticides
Assay type: in vivo
Settings: FRACU (Defender-M) sleeve; allethrin 0.085, bioresmethrin 0.106, etofenprox 0.101, bifenthrin 0.101 mg/cm^2
Experimental: Biological Evaluation: Bite protection assays were conducted with laboratory-reared 7-12 day old mosquitoes or sand flies. The species used throughout these studies are Aedes aegypti (Orlando, 1952) and Phlebotomus papatasi sand flies (Jerusalem, 1983). Females were pre-selected using either a hand draw box or a mechanical aspirator.
An assay was conducted by wearing sewn sleeves made from clothing material. Treated specimens were assayed with untreated controls to correct for the bite resistance afforded by material construction and composition. The untreated control was tested at the beginning of the experiment, followed by successively higher candidate repellent concentrations on sleeves. Sleeves were sewn from a cut out single ply trapezoidal pattern (33.2 cm×21 cm×25.5 cm height) of material. Sleeves were normally with a candidate repellent at the EPA permethrin label rate of 0.52% weight on (+5% tolerance) or less (0.125 mg/cm^2 for the 50/50 Nylon/Cotton (NYCO) Army Combat Uniform and 0108 mg./cm2 for the 65% Rayon/25% Para-aramid/10% Nylon Fire-Resistant Army Combat Uniform). Permethrin was 35:65cis: trans, 95.85% technical material. Experimental repellents were received as neat samples with <5% impurities. The treatment occurred by dissolution of repellent in suitable quantity of acetone to saturate the clothing, but minimizing excess solution. Excess solution was quantified and this amount of excess was then used to calculate the estimated amount of repellent applied to the material.
Insects were maintained in colony at approximately 78° F. and 60-80% RH. The photoperiod was 12:12. The mosquito cages were approximately 60000 cm^3 and each contained 175 to 225 female mosquitoes. […] Cages for sand fly work were slightly smaller (15000 cm^3) and constructed of acrylic for filming purposes and with screens on the exterior edges to allow air flow through the system. About 20-40 sand flies were released in cages for each assay. Assays started when the sleeved arm was inserted through the sleeve into the cage. Normally the hand was protected by a glove, but there were situations (i.e. sand fly data presented here) when the ability of a repellent to protect the untreated hand was determined. The assay periods were 15 min for the mosquitoes and 25-30 minutes for sand flies. The insects were allowed to land, probe and possibly bloodfeed during this time. At the conclusion of the experiment, all insects were knocked down or aspirated and the percentage that bloodfed of the total female test population in the cage was recorded. The protect level was calculated by Abbott's formula as a percentage reduction in bites compared to the untreated fabric control sleeve.
We were able to examine several treatments on the FRACU fabric sleeves (Table 7). […]

Cc1c(COC(=O)[C@@H]2[C@H](/C=C(\Cl)C(F)(F)F)C2(C)C)cccc1-c1ccccc1 (racemic) [Bifenthrin] was tested, and the “Bite Protection (% ± SE) (Ae. aegypti + An. albimanus)” value (“Bite Protection (% ± SE)” below) was 91.5 ± 1.1%.

With C=CCC1=C(C)C(OC(=O)C2C(C=C(C)C)C2(C)C)CC1=O (stereo not shown) [Allethrin] the “Bite Protection (% ± SE)” value was 98.7 ± 0.8%.

For CCOc1ccc(C(C)(C)COCc2cccc(Oc3ccccc3)c2)cc1 [Etofenprox], the “Bite Protection (% ± SE)” value was 94.9 ± 0.6%.

With CC(C)=C[C@@H]1[C@@H](C(=O)OCc2coc(Cc3ccccc3)c2)C1(C)C [Bioresmethrin] the “Bite Protection (% ± SE)” value was 98.1 ± 0.8%.
